Source: US20170189445A1, “XENON ASSOCIATED WITH AN NMDA RECEPTOR ANTAGONIST FOR CONTROLLING TUMOR PROLIFERATION IN THE CENTRAL NERVOUS SYSTEM” (L'Air Liquide, Société Anonyme pour I'Etude et …, priority 2014, published 2017)

Assays:
[1] = test system: glial cells of astrocyte type and/or precursors thereof; test: Cell proliferation by tritiated thymidine accumulation in astrocyte-enriched cultures (FCS mitogens); assay type: cell-based, rat; parameters: key to Reduction in proliferation: an absence of response is represented by a “−” sign, synonymous with non-efficacy with respect to cell proliferation; +: a favorable response, synonymous with inhibition of the proliferation of glial cells of astrocyte type; ++: a favorable response, synonymous with inhibition of the proliferation of glial cells of astrocyte type; +++: a favorable response, synonymous with inhibition of the proliferation of glial cells of astrocyte type; ++++=absence of proliferation
Procedure: Cultures are prepared from total brain of embryos, taken from gestating Wistar female rats on day 15.5 of gestation. The method for producing the cultures enriched with astrocytes (cells immunopositive for glial fibrillary acidic protein or GFAP) comprises obtaining a homogeneous cell suspension of the entire embryonic anterior brain by mechanical dissociation, i.e. non-enzymatic dissociation, using Leibovitz L15 medium (Sigma Aldrich). […] The medium used is Minimum Essential Medium (MEM), containing 10% of fetal calf serum (FCS, Biowest) and 10% of horse serum (HS, Sigma Aldrich), 1 g/l of glucose, 2 mM of L-glutamine, 1 mM of sodium pyruvate, non-essential amino acids, and a penicillin/streptomycin cocktail. When confluence is reached (i.e. after 7-10 days of culture), the adherent cells (>90% of astrocytes) are placed in PBS, then detached by tapping the flasks. […] The astrocytes are then cultured in 48-well multiwell plates (Nunc). Approximately 30 000 cells are applied per culture well. The cells are placed in the presence of the same medium as previously, but with a serum supplementation, reduced to 2%. No change of culture medium is carried out throughout the culture period. The proliferation is triggered and maintained by the presence of FCS in the culture medium. The NMDA receptor blocker, memantine (RD Systems), is added to the cultures just before exposure to the xenon. Dibutyryl cyclic AMP (dbcAMP), a lipophilic form of cAMP used as a reference anti-proliferative molecule (Mourlevat et al., Mol Pharmacol, 2003), is added at the same time as the memantine. Once the pharmacological treatments have been carried out, the multiwell dish plates containing the cells in culture and the plate used to humidify the internal compartment of the chamber are placed on a metal base which receives the Plexiglas incubation chamber. The two parts (base and Plexiglas chamber) are butt-joined together by screwing. A gas mixture of interest comprising (% by volume): 20% of O2, 5% of CO2 and 75% of the gas tested is then injected into the incubation chamber, with open inlet and outlet valves, while at the same time controlling the output flow rate by means of a flow meter. The gases tested are nitrogen and xenon. The reference output flow rate, set for air at 10 liters/min, is corrected according to the density of the mixture used. When the CO2 measurement reaches 5% at the outlet, the injection of the gas mixture is stopped and the chamber is made totally airtight by closing the inlet and outlet valves. The exposure chamber is then placed in an enclosure at 37° C. throughout the experimental protocol. After the […] been broken by opening the inlet and outlet valves and unscrewing the chamber from its base, the cultures are placed in the presence of PBS containing 5 mM of glucose and incubated for 2 h with tritiated thymidine (Perkin, 70-90 Ci/mmol; 0.5 μCi/well) in order to analyze the cell proliferation according to a method previously described by Rousseau and colleagues (Mol Pharmacol, 2013). […] These cultures were maintained, as soon as they were placed in culture and up to D3 in vitro, in an atmosphere containing 75% of nitrogen (N2 75) or 75% of xenon (Xe 75), in the presence or absence of memantine (MEM), […] analog of cAMP, dibutyryl-cAMP, used as reference anti-proliferative molecule. At the end of the treatments, the cultures are recovered for a cell proliferation measurement, using tritiated thymidine incorporation as evaluation index. The results are expressed in % (±SEM, n=6) of the mean values of the cultures maintained under 75% of nitrogen (control condition).

[2] = test system: glial cells of astrocyte type and/or precursors thereof in the presence of neuronal cells; test: Cell proliferation by tritiated thymidine incorporation in neuron-glia mixed (mesencephalon) cultures; assay type: cell-based, rat; parameters: key to Inhibition of proliferation: an absence of response is represented by a “−” sign, synonymous with non-efficacy with respect to cell proliferation; +: a favorable response, synonymous with inhibition of the proliferation of glial cells of astrocyte type; ++: a favorable response, synonymous with inhibition of the proliferation of glial cells of astrocyte type; +++: a favorable response, synonymous with inhibition of the proliferation of glial cells of astrocyte type; ++++=absence of proliferation
Procedure: Cultures are prepared from mesencephalon of rat embryos taken from female Wistar rats, on day 15.5 of gestation. The use of the mesencephalon cultures comprises obtaining a homogeneous cell suspension by mechanical dissociation, i.e. non-enzymatic dissociation, of the embryonic tissue, using Leibovitz L15 medium (Sigma Aldrich). Aliquots of this suspension are added to Nunc 48-well multiwell plates, which have been precoated with a thin layer of polyethyleneimine (1 mg/ml, borate buffer, pH 8.3) so as to enable adhesion of the neuronal cells (cf. Toulorge et al., Faseb J, 2011). The seeding density is between approximately 80 000 and 100 000 cells/culture well. The mesencephalon cultures are maintained in MEM culture medium, containing 1 g/l of glucose, 2 mM of L-glutamine, 1 mM of sodium pyruvate, non-essential amino acids and a penicillin/streptomycin cocktail. During the first week of culture, this medium also contains 10% of fetal calf serum (FCS, Biowest) and 10% of horse serum (HS, Sigma Aldrich), but from the second week, the concentrations of the two sera are reduced (Gao et al., J Neurosci, 2002). Up to the time when the effects of the gases of interest are evaluated, the cultures are placed in a conventional enclosure thermostatically controlled at 37° C., in which the CO2 is maintained at 5% by volume and wherein the atmosphere is saturated with water. The glial proliferation process occurs as soon as the cells are placed in culture. It is analyzed during the second week in vitro when the serum supplementation is reduced to 2% or in some cases to 0.1%. After reduction of the FCS and HS concentrations on D7, the NMDA receptor blocker, memantine, is added to the cultures before placing them under a controlled gaseous atmosphere. Once the pharmacological treatments have been carried out, the multiwell plates containing the cells in culture and the plate used for humidifying the internal compartment of the chamber are placed on a metal base which receives the Plexiglas incubation chamber. The two parts (base and Plexiglas chamber) are butt-joined together by screwing. A gas mixture of interest comprising (% by volume): 20% of O2, 5% of CO2 and 75% of gas tested is then injected into the incubation chamber, with open inlet and outlet valves, while at the same time controlling the output flow rate by means of a flow meter. The gases tested are nitrogen and xenon. The reference output flow rate, set for air at 10 liters/min, is corrected according to the density of the mixture used. When the CO2 measurement reaches 5% at the outlet, the injection of the gas mixture is stopped and the chamber is made totally airtight by closing the inlet and outlet valves. The exposure chamber is then placed in an enclosure at 37° C. for the 7 days of the experimental protocol. On D14, after the […] been broken by opening the inlet and outlet valves and unscrewing the incubation chamber from its base, the cultures are subjected to the tritiated-thymidine proliferation test according to the protocol described in example 1, using as a basis the technique described by Rousseau and colleagues (Mol. Pharmacol., 2013). […] Some experiments were also carried out by reducing the concentrations of the 2 types of serum to 0.1%, while maintaining the cells under a nitrogen-enriched or xenon-enriched atmosphere. The cultures are then recovered for a cell proliferation measurement using tritiated thymidine. […]

## CC12CC3CC(C)(C1)CC(N)(C3)C2 [Memantine, memantine]
[1]; 30 pM (so in the source), nitrogen-enriched atmosphere
  anti-proliferative effect: −39.3%
[1]; 30 pM (so in the source), xenon-enriched atmosphere
  anti-proliferative effect: −75.2%
[1]; 1 μM, 75% N2, D0-D3
  Reduction in proliferation: −
[1]; 1 μM, 75% Xe, D0-D3
  Reduction in proliferation: −
[1]; 3 μM, 75% N2, D0-D3
  Reduction in proliferation: −
[1]; 3 μM, 75% Xe, D0-D3
  Reduction in proliferation: −
[1]; 10 μM, 75% N2, D0-D3
  Reduction in proliferation: −
[1]; 10 μM, 75% Xe, D0-D3
  Reduction in proliferation: ++
[1]; 10 μM, xenon-enriched atmosphere, vs cultures under 75% nitrogen
  anti-proliferative effect: −42.5%
[1]; 30 μM, 75% N2, D0-D3
  Reduction in proliferation: ++
[1]; 30 μM, 75% Xe, D0-D3
  Reduction in proliferation: +++
[1]; nitrogen-enriched atmosphere, up to 10 μM
  anti-proliferative effect: no anti-proliferative effect
[2]; 10 μM, 75% N2, sera at 2%, D7-D14
  Inhibition of proliferation: −
[2]; memantine applied under nitrogen
  impact on the proliferation: no impact on the proliferation

## [Xe] [Xe, xenon]
[1]; 75% Xe (20% O2 + 5% CO2), no drug, D0-D3 (3 days)
  Reduction in proliferation: −
[1]; xenon replaces nitrogen (75 vol %), no drug
  anti-proliferative effect: no significant anti-proliferative effect
[2]; 75% Xe, sera at 0.1%, D7-D14
  Inhibition of proliferation: +++
[2]; 75% Xe, sera at 2%, D7-D14 (7 days)
  Inhibition of proliferation: −
[2]; xenon-enriched atmosphere, no memantine
  impact on the proliferation: no impact on the proliferation

## CCCC(=O)Nc1ncnc2c1ncn2[C@@H]1O[C@@H]2COP(=O)(O)O[C@H]2[C@H]1OC(=O)CCC [dbcAMP, Dibutyryl cyclic AMP]
[1]; 1 mM, 75% N2, D0-D3
  Reduction in proliferation: ++
[1]; 1 mM, 75% Xe, D0-D3
  Reduction in proliferation: ++
[1]; atmosphere containing 75 vol % of nitrogen
  proliferation in the presence of serum mitogens: significantly reduced
